From patent US20250340574A1, “MODULATORS OF CYSTIC FIBROSIS TRANSMEMBRANE CONDUCTANCE REGULATOR” (Vertex Pharmaceuticals Incorporated, priority 2022, published 2025) come the findings set out here.

T1 sequence (P13569 with tags, fused parts or gaps DEL508-508): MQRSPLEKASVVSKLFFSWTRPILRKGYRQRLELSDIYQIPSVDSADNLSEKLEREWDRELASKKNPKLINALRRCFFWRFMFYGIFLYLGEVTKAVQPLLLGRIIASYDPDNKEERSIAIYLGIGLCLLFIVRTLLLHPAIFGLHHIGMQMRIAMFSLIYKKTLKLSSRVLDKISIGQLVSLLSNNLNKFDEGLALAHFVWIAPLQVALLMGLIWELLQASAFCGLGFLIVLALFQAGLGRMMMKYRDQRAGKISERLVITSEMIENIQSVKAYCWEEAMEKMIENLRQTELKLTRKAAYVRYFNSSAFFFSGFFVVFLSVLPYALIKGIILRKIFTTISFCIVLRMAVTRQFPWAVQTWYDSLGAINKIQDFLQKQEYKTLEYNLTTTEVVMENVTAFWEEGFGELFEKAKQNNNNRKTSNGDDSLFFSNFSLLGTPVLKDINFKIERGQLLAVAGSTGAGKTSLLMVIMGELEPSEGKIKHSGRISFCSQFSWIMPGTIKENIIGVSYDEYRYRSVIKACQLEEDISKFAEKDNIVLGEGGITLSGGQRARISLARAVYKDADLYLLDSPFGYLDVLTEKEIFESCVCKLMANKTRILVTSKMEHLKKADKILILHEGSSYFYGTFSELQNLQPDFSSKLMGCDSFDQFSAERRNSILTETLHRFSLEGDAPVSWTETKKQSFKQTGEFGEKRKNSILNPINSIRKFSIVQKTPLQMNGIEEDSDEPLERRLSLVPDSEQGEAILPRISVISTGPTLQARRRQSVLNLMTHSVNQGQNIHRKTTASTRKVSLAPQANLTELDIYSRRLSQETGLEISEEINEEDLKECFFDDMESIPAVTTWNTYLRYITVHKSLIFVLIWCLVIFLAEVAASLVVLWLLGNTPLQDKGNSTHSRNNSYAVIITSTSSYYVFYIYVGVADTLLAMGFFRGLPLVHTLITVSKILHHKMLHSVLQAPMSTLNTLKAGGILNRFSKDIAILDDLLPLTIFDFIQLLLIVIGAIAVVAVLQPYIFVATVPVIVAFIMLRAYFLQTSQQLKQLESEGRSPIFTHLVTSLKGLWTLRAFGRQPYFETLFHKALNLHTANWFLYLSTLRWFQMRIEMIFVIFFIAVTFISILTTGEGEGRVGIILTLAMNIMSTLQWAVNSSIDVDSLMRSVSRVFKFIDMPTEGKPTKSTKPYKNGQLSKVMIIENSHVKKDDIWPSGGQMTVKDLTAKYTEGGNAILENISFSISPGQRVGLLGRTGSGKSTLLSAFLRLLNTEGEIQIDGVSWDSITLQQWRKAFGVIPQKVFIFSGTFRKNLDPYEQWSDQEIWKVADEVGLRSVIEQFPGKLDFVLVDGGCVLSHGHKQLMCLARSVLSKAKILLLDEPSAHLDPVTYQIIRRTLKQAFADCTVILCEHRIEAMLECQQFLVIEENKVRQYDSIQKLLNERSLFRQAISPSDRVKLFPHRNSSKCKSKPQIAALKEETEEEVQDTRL

The first test concerns the target T1, CFTR (F508del/MF-HBE cells) (Homo sapiens, UniProt P13569, DEL508-508).
T1 construct: human bronchial epithelial (HBE) cells derived from CF subjects heterozygous for F508del and a minimal function CFTR mutation (F508del/MF-HBE); endogenous in cells; host or cells: Primary human bronchial epithelial cells from CF subjects (F508del/MF genotype), differentiated at an air-liquid interface
Put plainly: Ussing chamber assay of CFTR-mediated short-circuit currents, Assay D (single concentration of 1 μM). Format: cell-based. As to conditions: with 44 nM potentiator and 18 μM Tezacaftor, 18-24 hours, 20% human serum. As to the method: Ussing chamber experiments were performed using human bronchial epithelial (HBE) cells derived from CF subjects heterozygous for F508del and a minimal function CFTR mutation (F508del/MF-HBE) and cultured as previously described (Neuberger T, Burton B, Clark H, Van Goor F Methods Mol Biol 2011:741:39-54). After four days the apical media was removed, and the cells were grown at an air liquid interface for >14 days prior to use.
To isolate the CFTR-mediated short-circuit (ISC) current, F508del/MF-HBE grown on Costar® Snapwell™ cell culture inserts were mounted in an Ussing chamber and the transepithelial ISC was measured under voltage-clamp recording conditions (Vhold=0 mV) at 37° C. The basolateral solution contained (in mM) 145 NaCl, 0.83 K2HPO4, 3.3 KH2PO4, 1.2 MgCl2, 1.2 CaCl2, 10 Glucose, 10 HEPES (pH adjusted to 7.4 with NaOH) and the apical solution contained (in mM) 145 NaGluconate, 1.2 MgCl2, 1.2 CaCl2, 10 glucose, 10 HEPES (pH adjusted to 7.4 with NaOH) and 30 μM amiloride to block the epithelial sodium channel. Forskolin (20 μM) was added to the apical surface to activate CFTR, followed by apical addition of a CFTR inhibitor cocktail consisting of BPO, GlyH-101, and CFTR inhibitor 172 (each at 20 μM final assay concentration) to specifically isolate CFTR currents. The CFTR-mediated ISC (μA/cm^2) for each condition was determined from the peak forskolin response to the steady-state current following inhibition.
The activity of the CFTR corrector compounds on the CFTR-mediated ISC was determined in Ussing chamber studies as described above. The F508del/MF-HBE cell cultures were either incubated with the corrector compounds at a range of concentrations in combination with 33 nM (6R,12R)-17-amino-12-methyl-6,15-bis(trifluoromethyl)-13,19-dioxa-3,4,18-triazatricyclo[12.3.1.12,5]nonadeca-1(18),2,4,14,16-pentaen-6-ol and 18 μM Tezacaftor or were incubated with the corrector compounds at a single fixed concentration of 1 μM in combination with 44 nM (6R,12R)-17-amino-12-methyl-6,15-bis(trifluoromethyl)-13,19-dioxa-3,4,18-triazatricyclo[12.3.1.12,5]nonadeca-1(18),2,4,14,16-pentaen-6-ol and 18 μM Tezacaftor for 18-24 hours at 37° C. and in the presence of 20% human serum. The concentration of corrector compounds with 44 nM or 33 nM (6R,12R)-17-amino-12-methyl-6,15-bis(trifluoromethyl)-13,19-dioxa-3,4,18-triazatricyclo[12.3.1.12,5]nonadeca-1(18),2,4,14,16-pentaen-6-ol and 18 μM Tezacaftor during the 18-24 hours incubations was kept constant throughout the Ussing chamber measurement of the CFTR-mediated ISC to ensure compounds were present throughout the entire experiment. The efficacy and potency of the putative F508del correctors was compared to that of the known Vertex corrector, (14S)-8-[3-(2-{Dispiro[2.0.2.1]heptan-7-yl}ethoxy)-1H-pyrazol-1-yl]-12,12-dimethyl-2λ^6-thia-3,9,11,18,23-pentaazatetracyclo[17.3.1.111,14.05,10]tetracosa-1(22),5,7,9,19(23),20-hexaene-2,2,4-trione, in combination with 18 μM Tezacaftor and 1 μM Ivacaftor.
• Assay A: 0.1 μM to 25 μM, 6 concentrations • Assay B: 0.00001 μM to 25 μM, 12 concentrations • Assay C: 0.026 μM to 25 μM, 6 concentrations • Assay D: Activity at single concentration of 1 μM
With `Cc1cccc(C)c1-c1cc2nc(n1)NS(=O)(=O)c1cccc(c1)C(=O)N(Cc1cnc3oc(C4CC4)cc3n1)[C@@H](CC1CC(C)(C)C1)CO2` (single isomer, unassigned) [Compound I-166, 12-[(6-cyclopropylfuro[2,3-b]pyrazin-2-yl)methyl]-11-[(3,3-dimethylcyclobutyl)methyl]-6-(2,6-dimethylphenyl)-2,2-dioxo-9-oxa-2λ^6-thia-3,5,12,19-tetrazatricyclo[12.3.1.14,8]nonadeca-1(18),4(19),5,7,14,16-hexaen-13-one], the “D activity at 1 μM (%)” value is given as “++ (++ is 30-60%)”.
Still for that read-out and setting: with `Cc1cccc(C)c1-c1cc2nc(n1)NS(=O)(=O)c1cccc(c1)C(=O)N(Cc1ccc3oc(C4(C)CC4)cc3n1)[C@H](COC(C)C)CO2` [Compound I-241] the entry was “+++ (+++ is >60%)”; with `Cc1cccc(C)c1-c1cc2nc(n1)NS(=O)(=O)c1cccc(c1)C(=O)N(Cc1cnc3oc(C(C)C)cc3n1)[C@H](CC(C)(C)C(F)(F)F)CO2` [Compound I-60], “+++ (+++ is >60%)”.
The same measure, in the same setting: with `Cc1cccc(C)c1-c1nc2nc(c1C)OC[C@@H](CC1(C)CC1)N(Cc1cnc3cc(C4(C)CC4)n(C)c3n1)C(=O)c1cccc(c1)S(=O)(=O)N2` [Compound I-230] the entry was “+++ (+++ is >60%)”.
On to `Cc1cccc(C)c1-c1cc2nc(n1)NS(=O)(=O)c1cccc(c1F)C(=O)N(Cc1cnc3cc(C(C)C)n(CCO)c3n1)[C@H](CC1(C)CC1)CO2` [Compound I-215], for which the “D activity at 1 μM (%)” value is on record as “+++ (+++ is >60%)”.
Consider `Cc1cccc(C)c1-c1cc2nc(n1)NS(=O)(=O)c1cccc(c1)C(=O)N(Cc1cnc3oc(C4(C)CC4)cc3n1)[C@H](COC(C)C)CO2` [Compound I-186], for which the “D activity at 1 μM (%)” value is “+++ (+++ is >60%)”.
Regarding `Cc1cccc(C)c1-c1nc2nc(c1C)OC[C@@H](CC(C)(C)C)N(Cc1ccc3oc(C4(C)CC4)cc3n1)C(=O)c1cccc(c1)S(=O)(=O)N2` [Compound I-235], the “D activity at 1 μM (%)” value was “+++ (+++ is >60%)”.
Regarding `Cc1cccc(C)c1-c1cc2nc(n1)NS(=O)(=O)c1cccc(c1)C(=O)N(Cc1cnc3nc(C4CC4)n(C)c3n1)[C@H](CC(C)(C)C)CO2` [Compound I-141], the “D activity at 1 μM (%)” value is on record as “+++ (+++ is >60%)”.
Same read-out and setting: next, `Cc1cccc(CC(C)C)c1-c1nc2nc(c1C)OC[C@@H](CC13CC(C1)C3)N(Cc1cnc3oc(C(C)(C)C)cc3n1)C(=O)c1cccc(c1)S(=O)(=O)N2` [Compound I-248]: “+++ (+++ is >60%)”.
Consider `Cc1cccc(C)c1-c1cc2nc(n1)NS(=O)(=O)c1cccc(c1)C(=O)N(Cc1cnc3oc(C4(C)CCC4)cc3n1)[C@H](COC(C)C)CO2` [Compound I-144], for which the “D activity at 1 μM (%)” value is on record as “+++ (+++ is >60%)”.
With `Cc1cccc(C)c1-c1nc2nc(c1C)OC[C@@H](CC(C)(C)C)N(Cc1cnc3cc(C4(C)CC4)n(C)c3n1)C(=O)c1cccc(c1)S(=O)(=O)N2` [Compound I-229], the “D activity at 1 μM (%)” value is on record as “+++ (+++ is >60%)”.
The same measure, in the same setting: next, `Cc1cccc(C)c1-c1cc2nc(n1)NS(=O)(=O)c1cccc(c1)C(=O)N(Cc1nc3cc(C(C)C)oc3nc1C(F)(F)F)[C@H](CC1(C)CC1)CO2` [Compound I-142]: “+++ (+++ is >60%)”; `Cc1cccc(CCC(C)C)c1-c1nc2nc(c1C)OC[C@@H](CC(C)(C)C)N(Cc1cnc3oc(C4CC4)cc3n1)C(=O)c1cccc(c1)S(=O)(=O)N2` (atropisomer, axis not shown) [Compound I-205]: “+++ (+++ is >60%)”.
The same measure, in the same setting: next, `Cc1cccc(C)c1-c1cc2nc(n1)NS(=O)(=O)c1cccc(c1)C(=O)N(Cc1cnc3cc(C(C)C)n(C)c3n1)C(CC(C)(C)C1CC1)CO2` (centres unmarked) [Compound I-108]: “+++ (+++ is >60%)”; `Cc1cccc(C)c1-c1cc2nc(n1)NS(=O)(=O)c1cccc(c1)C(=O)N(Cc1cnc3cc(C(C)C)n(C)c3n1)[C@H](CC1(F)CCC1)CO2` [Compound I-125]: “+++ (+++ is >60%)”; `Cc1cccc(C)c1-c1cc2nc(n1)NS(=O)(=O)c1cccc(c1)C(=O)N(Cc1cnc3oc(C(C)C)cc3n1)[C@H](CC1(F)CCC1)CO2` [Compound I-124]: “+++ (+++ is >60%)”.
The same measure, in the same setting: next, `Cc1cccc(C)c1-c1cc2nc(n1)NS(=O)(=O)c1cccc(c1)C(=O)N(Cc1cnc3oc(C(C)C)cc3n1)[C@H](COC1CC1)CO2` [Compound I-109]: “+++ (+++ is >60%)”.
`Cc1cccc(C)c1-c1cc2nc(n1)NS(=O)(=O)c1cccc(c1)C(=O)N(Cc1cnc3oc(C4CC4)cc3n1)[C@H](C[C@@H]1CCCO1)CO2` (stereo in doubt) [Compound I-45]: the “D activity at 1 μM (%)” value is “+++ (+++ is >60%)”.
On the same count and under the same terms, with `Cc1cccc(C)c1-c1cc2nc(n1)NS(=O)(=O)c1cccc(c1)C(=O)N(Cc1nc3cc(C(C)C)oc3cc1F)[C@H](COC(C)C)CO2` [Compound I-77] the entry was “+++ (+++ is >60%)”; with `Cc1cccc(C)c1-c1cc2nc(n1)NS(=O)(=O)c1cccc(c1)C(=O)N(Cc1cnc3oc(C(C)C)cc3n1)[C@H](CC1CCCO1)CO2` (single isomer, unassigned) [Compound I-22], “+++ (+++ is >60%)”.
The same measure, in the same setting: next, `Cc1cccc(C)c1-c1cc2nc(n1)NS(=O)(=O)c1cccc(c1)C(=O)N(Cc1cn3cccc(C(C)C)c3n1)[C@H](CC(C)(C)C)CO2` [III-5, (11R)-6-(2,6-dimethylphenyl)-11-(2,2-dimethylpropyl)-12-[(8-isopropylimidazo[1,2-a]pyridin-2-yl)methyl]-2,2-dioxo-9-oxa-2λ^6-thia-3,5,12,19-tetrazatricyclo[12.3.1.14,8]nonadeca-1(18),4(19),5,7,14,16-hexaen-13-one]: “+++ (+++ is >60%)”; `Cc1cccc(C)c1-c1cc2nc(n1)NS(=O)(=O)c1cccc(c1)C(=O)N(Cc1nc3c(cc1F)nc(C(C)C)n3C)[C@H](COC(C)C)CO2` [Compound I-68]: “+++ (+++ is >60%)”.

Still in this test, the particulars now being: with 44 nM potentiator and 18 μM Tezacaftor, 20% human serum.
Turning to `Cc1cccc(C)c1-c1cc2nc(n1)NS(=O)(=O)c1cccc(c1)C(=O)N(Cc1cnc3oc([C@](C)(O)CO)cc3n1)[C@H](CC1(C)CC1)CO2` (single isomer, unassigned) [IV-15], the “D act. at 1 μM (%)” value was “+++ (+++ is >60%)”.
On to `COC(C)(C)CC(C)(O)c1cc2nc(CN3C(=O)c4cccc(c4)S(=O)(=O)Nc4nc(cc(-c5c(C)cccc5C)n4)OC[C@H]3CC3(C)CC3)cnc2o1` (stereo partly drawn) [IV-13, (11R)-6-(2,6-dimethylphenyl)-12-[[6-(1-hydroxy-3-methoxy-1,3-dimethyl-butyl)furo[2,3-b]pyrazin-2-yl]methyl]-11-[(1-methylcyclopropyl)methyl]-2,2-dioxo-9-oxa-2λ^6-thia-3,5,12,19-tetrazatricyclo[12.3.1.14,8]nonadeca-1(18),4(19),5,7,14,16-hexaen-13-one], for which the “D act. at 1 μM (%)” value is given as “+++ (+++ is >60%)”.
For the compound `Cc1cccc(C)c1-c1cc2nc(n1)NS(=O)(=O)c1cccc(c1)C(=O)N(Cc1cnc3oc(C#N)cc3n1)[C@H](CC1(C)CC1)CO2` [IV-28], the “D act. at 1 μM (%)” value is “+++ (+++ is >60%)”.
Still for that read-out and setting: next, `CCc1c2nc(nc1-c1c(C)cccc1C)NS(=O)(=O)c1cccc(c1)C(=O)N(Cc1cnc3oc(C(C)(C)C)cc3n1)[C@H](COC(C)C)CO2` [IV-3]: “+++ (+++ is >60%)”.
